Test results published in patent US20260217701A1, “SELECTIVE BET INHIBITORS AND USES THEREOF” (Tay Therapeutics Limited, priority 2022, published 2026).
“And” between values parts separate entries of the source, which are not always exact repeats. Identical values can stand only once.

Tested on: collagen-induced arthritis
Assay: Collagen-induced arthritis (CIA) model: clinical scores and paw volume; as to Animal paw volume percent change (%): reference of the scale not given here; as to Average animal paw volume percent change (%): reference of the scale not given here
Format: in vivo, Lewis rats
Conditions: for Overall Clinical Score: individual animals 1-8; for Animal paw volume / Animal paw volume percent change (%): individual animals
[1] = Day 15, CIA + Compound A 3 mg/kg
[2] = Day 15, CIA + Compound A 10 mg/kg
[3] = Day 18, L paw, group 5 CIA + Compound A 1 mg/kg
[4] = Day 18, L paw, group 6 CIA + Compound A 3 mg/kg
[5] = Day 18, L paw, group 7 CIA + Compound A 10 mg/kg
[6] = Day 18, R paw, group 5 CIA + Compound A 1 mg/kg
[7] = Day 18, R paw, group 6 CIA + Compound A 3 mg/kg
[8] = Day 18, R paw, group 7 CIA + Compound A 10 mg/kg
[9] = Day 18, CIA + Compound A 1 mg/kg
[10] = Day 18, CIA + Compound A 3 mg/kg
[11] = Day 18, CIA + Compound A 10 mg/kg
[12] = Day 19, L paw, group 5 CIA + Compound A 1 mg/kg
[13] = Day 19, L paw, group 6 CIA + Compound A 3 mg/kg
[14] = Day 19, L paw, group 7 CIA + Compound A 10 mg/kg
[15] = Day 19, R paw, group 5 CIA + Compound A 1 mg/kg
[16] = Day 19, R paw, group 6 CIA + Compound A 3 mg/kg
[17] = Day 19, R paw, group 7 CIA + Compound A 10 mg/kg
[18] = Day 19, CIA + Compound A 1 mg/kg
[19] = Day 19, CIA + Compound A 3 mg/kg
[20] = Day 21, L paw, group 5 CIA + Compound A 1 mg/kg
[21] = Day 21, L paw, group 6 CIA + Compound A 3 mg/kg
[22] = Day 21, L paw, group 7 CIA + Compound A 10 mg/kg
[23] = Day 21, R paw, group 5 CIA + Compound A 1 mg/kg

## Cn1cc(-c2ccccc2)c(-c2cn(C)c(=O)c3[nH]c(-c4cnn(C(F)(F)F)c4)cc23)cc1=O [Compound A, 6-methyl-4-(1-methyl-2-oxo-5-phenyl-1,2-dihydropyridin-4-yl)-2-(1-(trifluoromethyl)-1H-pyrazol-4-yl)-1,6-dihydro-7H-pyrrolo[2,3-c]pyridin-7-one]
[1]
  Average detailed clinical score, score: 1
  Average overall clinical score: 1
Day 15, CIA + Compound A 3 mg/kg, 3 mg/kg
  Overall Clinical Score: 0 (2×) and 1
[2]
  Average detailed clinical score, left forelimb: 0
  Average detailed clinical score, left hind limb: 0.75
  Average detailed clinical score, right forelimb: 0
  Average detailed clinical score, right hind limb: 0.5
  Average detailed clinical score, score: 1.25
  Average overall clinical score: 1
Day 15, L paw, Group 5 (CIA + Compound A 1 mg/kg), 1 mg/kg
  Animal paw volume: 1.45 mL and 1.84 mL and 1.77 mL and 1.64 mL and 1.48 mL and 1.66 mL and 1.92 mL
Day 15, L paw, Group 6 (CIA + Compound A 3 mg/kg), 3 mg/kg
  Animal paw volume: 1.49 mL (2×) and 1.59 mL and 1.48 mL and 1.54 mL and 1.68 mL
Day 15, R paw, Group 5 (CIA + Compound A 1 mg/kg), 1 mg/kg
  Animal paw volume: 1.42 mL and 1.81 mL and 1.56 mL and 1.65 mL and 1.50 mL and 1.72 mL and 1.59 mL
Day 15, R paw, Group 6 (CIA + Compound A 3 mg/kg), 3 mg/kg
  Animal paw volume: 1.39 mL and 1.41 mL and 1.46 mL and 1.42 mL and 1.75 mL and 1.57 mL
[3]
  Average animal paw volume: 1.98 mL
  Average animal paw volume percent change (%): 49.46%
[4]
  Average animal paw volume: 1.64 mL
  Average animal paw volume percent change (%): 24.36%
[5]
  Average animal paw volume: 1.61 mL
  Average animal paw volume percent change (%): 22.68%
Day 18, L paw, group 5 CIA + Compound A 1 mg/kg, 1 mg/kg
  Animal paw volume percent change (%): 55.17% and 87.60% and 51.66% and 66.42% and 24.72% and 52.08% and 52.83%
Day 18, L paw, group 6 CIA + Compound A 3 mg/kg, 3 mg/kg
  Animal paw volume percent change (%): 29.66% and 54.47% and 6.08% and 10.26% and 18.39% and 23.97%
[6]
  Average animal paw volume: 1.91 mL
  Average animal paw volume percent change (%): 44.06%
[7]
  Average animal paw volume: 1.78 mL
  Average animal paw volume percent change (%): 35.37%
[8]
  Average animal paw volume: 1.76 mL
  Average animal paw volume percent change (%): 34.04%
Day 18, R paw, group 5 CIA + Compound A 1 mg/kg, 1 mg/kg
  Animal paw volume percent change (%): 59.00% and 89.96% and 33.45% and 53.58% and 18.45% and 55.13% and 36.98%
Day 18, R paw, group 6 CIA + Compound A 3 mg/kg, 3 mg/kg
  Animal paw volume percent change (%): 61.13% and 22.57% and 44.15% and 30.48% and 50.58% and 23.22%
[9]
  Average detailed clinical score, left forelimb: 0.50
  Average detailed clinical score, left hind limb: 3.88
  Average detailed clinical score, right forelimb: 0.50
  Average detailed clinical score, right hind limb: 3.88
  Average detailed clinical score, score: 8.75
  Average overall clinical score: 4
Day 18, CIA + Compound A 1 mg/kg, 1 mg/kg
  Overall Clinical Score: 0 and 5 (3×) and 7 and 6 and 2 and 4
[10]
  Average detailed clinical score, left forelimb: 0.00
  Average detailed clinical score, left hind limb: 2.50
  Average detailed clinical score, right forelimb: 0.88
  Average detailed clinical score, right hind limb: 2.25
  Average detailed clinical score, score: 5.63
  Average overall clinical score: 3
Day 18, CIA + Compound A 3 mg/kg, 3 mg/kg
  Overall Clinical Score: 4 and 3 and 2
[11]
  Average detailed clinical score, left forelimb: 0.00
  Average detailed clinical score, left hind limb: 1.13
  Average detailed clinical score, right forelimb: 0.00
  Average overall clinical score: 3
Day 18, L paw, Group 5 (CIA + Compound A 1 mg/kg), 1 mg/kg
  Animal paw volume: 2.03 mL (2×) and 2.42 mL and 2.06 mL and 2.21 mL and 1.67 mL and 2.02 mL
Day 18, L paw, Group 6 (CIA + Compound A 3 mg/kg), 3 mg/kg
  Animal paw volume: 1.71 mL and 1.99 mL and 1.40 mL and 1.51 mL and 1.55 mL and 1.66 mL
Day 18, R paw, Group 5 (CIA + Compound A 1 mg/kg), 1 mg/kg
  Animal paw volume: 2.08 mL and 2.46 mL and 1.84 mL and 2.04 mL (2×) and 1.61 mL and 1.82 mL
Day 18, R paw, Group 6 (CIA + Compound A 3 mg/kg), 3 mg/kg
  Animal paw volume: 2.14 mL and 1.58 mL and 1.91 mL and 1.76 mL and 1.95 mL and 1.65 mL
[12]
  Average animal paw volume: 1.97 mL
  Average animal paw volume percent change (%): 49.19%
[13]
  Average animal paw volume: 1.70 mL
  Average animal paw volume percent change (%): 29.54%
[14]
  Average animal paw volume: 1.66 mL
  Average animal paw volume percent change (%): 26.62%
Day 19, L paw, group 5 CIA + Compound A 1 mg/kg, 1 mg/kg
  Animal paw volume percent change (%): 55.17% and 87.60% and 49.82% and 69.06% and 22.47% and 52.08% and 53.58%
Day 19, L paw, group 6 CIA + Compound A 3 mg/kg, 3 mg/kg
  Animal paw volume percent change (%): 43.35% and 54.47% and 22.81% and 10.99% and 29.12%
[15]
  Average animal paw volume: 1.92 mL
  Average animal paw volume percent change (%): 44.50%
[16]
  Average animal paw volume: 1.78 mL
  Average animal paw volume percent change (%): 35.81%
[17]
  Average animal paw volume: 1.75 mL
  Average animal paw volume percent change (%): 33.14%
Day 19, R paw, group 5 CIA + Compound A 1 mg/kg, 1 mg/kg
  Animal paw volume percent change (%): 68.20% and 87.26% and 33.45% and 54.34% and 17.71% and 54.75% and 35.85%
Day 19, R paw, group 6 CIA + Compound A 3 mg/kg, 3 mg/kg
  Animal paw volume percent change (%): 61.89% and 25.68% and 43.02% and 29.74% and 52.90%
[18]
  Average detailed clinical score, left forelimb: 1.13
  Average detailed clinical score, left hind limb: 4.00
  Average detailed clinical score, right forelimb: 1.00
  Average detailed clinical score, right hind limb: 3.75
  Average detailed clinical score, score: 9.88
  Average overall clinical score: 5
Day 19, CIA + Compound A 1 mg/kg, 1 mg/kg
  Overall Clinical Score: 0 and 6 (5×) and 8 and 3
[19]
  Average detailed clinical score, left forelimb: 0.00
  Average detailed clinical score, left hind limb: 2.38
  Average detailed clinical score, right forelimb: 1.13
  Average detailed clinical score, right hind limb: 2.88
  Average detailed clinical score, score: 6.38
  Average overall clinical score: 4
Day 19, CIA + Compound A 3 mg/kg, 3 mg/kg
  Overall Clinical Score: 5 and 4 (2×)
Day 19, CIA + Compound A 10 mg/kg
  Average overall clinical score: 4
Day 19, L paw, Group 5 (CIA + Compound A 1 mg/kg), 1 mg/kg
  Animal paw volume: 2.03 mL (2×) and 2.42 mL and 2.24 mL and 1.64 mL and 2.02 mL and 2.04 mL
Day 19, L paw, Group 6 (CIA + Compound A 3 mg/kg), 3 mg/kg
  Animal paw volume: 1.89 mL and 1.99 mL and 1.62 mL and 1.52 mL and 1.69 mL
Day 19, R paw, Group 5 (CIA + Compound A 1 mg/kg), 1 mg/kg
  Animal paw volume: 2.20 mL and 2.43 mL and 1.84 mL and 2.05 mL and 1.60 mL and 2.04 mL and 1.80 mL
Day 19, R paw, Group 6 (CIA + Compound A 3 mg/kg), 3 mg/kg
  Animal paw volume: 2.15 mL and 1.62 mL and 1.90 mL and 1.75 mL and 1.98 mL
[20]
  Average animal paw volume: 2.01 mL
  Average animal paw volume percent change (%): 52.06%
[21]
  Average animal paw volume: 1.73 mL
  Average animal paw volume percent change (%): 31.54%
[22]
  Average animal paw volume: 1.72 mL
  Average animal paw volume percent change (%): 31.20%
Day 21, L paw, group 5 CIA + Compound A 1 mg/kg, 1 mg/kg
  Animal paw volume percent change (%): 56.70% and 89.53% and 53.14% and 70.94% and 22.47% and 56.60% and 61.89%
Day 21, L paw, group 6 CIA + Compound A 3 mg/kg, 3 mg/kg
  Animal paw volume percent change (%): 46.01% and 70.04% and 24.33% and 10.99% and 37.55%
[23]
  Average animal paw volume: 2.01 mL
  Average animal paw volume percent change (%): 51.46%
Day 21, R paw, group 6 CIA + Compound A 3 mg/kg
  Average animal paw volume: 1.82 mL
